{"source": "paper PMC4809600", "about": "“The Influence of Chronic Wound Extracts on Inflammatory Cytokine and Histatin Stability” (PLoS ONE, 2016)", "key": {"[1]": {"test": "Dose response of Hst1 and PIC in the presence of CWE", "format": "in vitro ADME, human", "details": "CWE 1 mg/ml, 37°C, CZE, 0 h = 100%; for Intact Hst1, CWE + PIC 1:280 24h / Intact Hst1, CWE + PIC 1:280 96h: Hst1 2 mg/ml; for remaining at 24 h, 1 mg/ml / remaining at 96 h, 1 mg/ml: Hst1 1 mg/ml", "method": "For the dose response of PIC and Hst1, three different concentrations of Hst1 were prepared (0.5 mg/ml, 1 mg/ml and 2 mg/ml) and two different concentrations of PIC were used. The final PIC concentration in the CWE (1 mg/ml) sample was 1:140 v/v (same as above) or 1:280 v/v (2x diluted). Mixtures were incubated at 37°C and samples were taken at 0, 24 and 96 h.\nThe samples were analyzed with a BioFocus 2000 capillary zone electrophoresis system (Bio-Rad Laboratories, Hercules, CA, USA) equipped with an uncoated fused-silica capillary of internal diameter 50 μm and a length of 24 cm. Samples were loaded by pressure injection (5 psi/sec). Separation was performed at 10 kV (cathode at the detector side) at 20°C using 0.1 M phosphate buffer (pH 2.5) as electrolyte and monitored continuously at 200 nm. Peaks were quantified with the BioFocus Integrator software. In order to quantify the percentage of intact peptides remaining after incubation with CWE, the ratios of histatins, rhIL-6 or rhCXCL8 to internal standard was set at 100% at 0h, and the ratios at the other incubation time points were related to this."}, "[2]": {"test": "Stability in chronic wound extracts (CWE), capillary zone electrophoresis", "format": "in vitro ADME, human", "details": "37°C, CZE; for Percentage intact, CWE 2h / Percentage intact, CWE 4h / Percentage intact, CWE 8h / Percentage intact, CWE 16h / Percentage intact, CWE 24h / Percentage intact, CWE 48h / Percentage intact, CWE 72h / Percentage intact, CWE 96h: 1 mg/ml in PBS mixed 1:1 with CWE (1 mg/ml protein, pool of 5 donors) in PBS, UV 200 nm, ratio to imidazole", "procedure,_shortened": "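Peptides or cytokines (1 mg/ml stock) mixed 1:1 with PBS or pooled chronic-wound extract (1 mg/ml protein, three pools of five donors), ±protease inhibitor cocktail, at 37 °C for up to 96 h. Analyzed by capillary zone electrophoresis (pH 2.5 phosphate, 200 nm), with peak ratio to imidazole standard relative to 0 h as % intact.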"}}, "note": "Like-named read-outs stand apart in the source and are kept apart here. Where no end group is shown, it is not given here."}
{"sequence": "DSHEKRHHGYRRKFHEKHHSHREFPFYGDYGSNYLYDN [Hst1]", "values": [{"measurement": "Intact Hst1, CWE + PIC 1:280 24h", "setting": "[1]; PIC:CWE 1:280 v/v, 24 h, experiment 1 of 3", "value": 61.8953, "unit": "%"}, {"measurement": "Intact Hst1, CWE + PIC 1:280 24h", "setting": "[1]; PIC:CWE 1:280 v/v, 24 h, experiment 2 of 3", "value": 55.6946, "unit": "%"}, {"measurement": "Intact Hst1, CWE + PIC 1:280 24h", "setting": "[1]; PIC:CWE 1:280 v/v, 24 h, experiment 3 of 3", "value": 47.0948, "unit": "%"}, {"measurement": "Intact Hst1, CWE + PIC 1:280 96h", "setting": "[1]; PIC:CWE 1:280 v/v, experiment 1 of 3", "value": 42.3498, "unit": "%"}, {"measurement": "Intact Hst1, CWE + PIC 1:280 96h", "setting": "[1]; PIC:CWE 1:280 v/v, experiment 2 of 3", "value": 34.4262, "unit": "%"}, {"measurement": "Intact Hst1, CWE + PIC 1:280 96h", "setting": "[1]; PIC:CWE 1:280 v/v, experiment 3 of 3", "value": 43.3131, "unit": "%"}, {"measurement": "remaining at 96 h, 0.5 mg/ml", "setting": "[1]; human, chronic wound extracts (CWE), with protease inhibitor cocktail (PIC), PIC:CWE 1:140 v/v, Hst1 0.5 mg/ml, PIC:CWE 1:140 v/v, experiment 3 of 3, read-out: Intact Hst1, CWE + PIC 1:140 96h", "value": 37.5, "unit": "%"}, {"measurement": "remaining at 24 h, 1 mg/ml", "setting": "[1]; human, chronic wound extracts (CWE), with protease inhibitor cocktail (PIC), PIC:CWE 1:140 v/v, PIC:CWE 1:140 v/v, 24 h, experiment 1 of 3, read-out: Intact Hst1, CWE + PIC 1:140 24h", "value": 76.2, "unit": "%"}, {"measurement": "remaining at 24 h, 1 mg/ml", "setting": "[1]; human, chronic wound extracts (CWE), with protease inhibitor cocktail (PIC), PIC:CWE 1:140 v/v, PIC:CWE 1:140 v/v, 24 h, experiment 2 of 3, read-out: Intact Hst1, CWE + PIC 1:140 24h", "value": 67, "unit": "%"}, {"measurement": "remaining at 96 h, 1 mg/ml", "setting": "[1]; human, chronic wound extracts (CWE), with protease inhibitor cocktail (PIC), PIC:CWE 1:140 v/v, PIC:CWE 1:140 v/v, experiment 1 of 3, read-out: Intact Hst1, CWE + PIC 1:140 96h", "value": 53.2, "unit": "%"}, {"measurement": "remaining at 96 h, 1 mg/ml", "setting": "[1]; human, chronic wound extracts (CWE), with protease inhibitor cocktail (PIC), PIC:CWE 1:140 v/v, PIC:CWE 1:140 v/v, experiment 2 of 3, read-out: Intact Hst1, CWE + PIC 1:140 96h", "value": 43.5, "unit": "%"}, {"measurement": "remaining at 24 h, 0.5 mg/ml", "setting": "[1]; human, chronic wound extracts (CWE), with protease inhibitor cocktail (PIC), PIC:CWE 1:280 v/v, Hst1 0.5 mg/ml, PIC:CWE 1:280 v/v, 24 h, experiment 3 of 3, read-out: Intact Hst1, CWE + PIC 1:280 24h", "value": 34.4, "unit": "%"}, {"measurement": "remaining at 96 h, 0.5 mg/ml", "setting": "[1]; human, chronic wound extracts (CWE), with protease inhibitor cocktail (PIC), PIC:CWE 1:280 v/v, Hst1 0.5 mg/ml, PIC:CWE 1:280 v/v, experiment 3 of 3, read-out: Intact Hst1, CWE + PIC 1:280 96h", "value": 20.3, "unit": "%"}, {"measurement": "remaining at 24 h, 1 mg/ml", "setting": "[1]; human, chronic wound extracts (CWE), with protease inhibitor cocktail (PIC), PIC:CWE 1:280 v/v, PIC:CWE 1:280 v/v, 24 h, experiment 1 of 3, read-out: Intact Hst1, CWE + PIC 1:280 24h", "value": 60.2, "unit": "%"}, {"measurement": "remaining at 24 h, 1 mg/ml", "setting": "[1]; human, chronic wound extracts (CWE), with protease inhibitor cocktail (PIC), PIC:CWE 1:280 v/v, PIC:CWE 1:280 v/v, 24 h, experiment 2 of 3, read-out: Intact Hst1, CWE + PIC 1:280 24h", "value": 51.5, "unit": "%"}, {"measurement": "remaining at 96 h, 1 mg/ml", "setting": "[1]; human, chronic wound extracts (CWE), with protease inhibitor cocktail (PIC), PIC:CWE 1:280 v/v, PIC:CWE 1:280 v/v, experiment 1 of 3, read-out: Intact Hst1, CWE + PIC 1:280 96h", "value": 37, "unit": "%"}, {"measurement": "remaining at 96 h, 1 mg/ml", "setting": "[1]; human, chronic wound extracts (CWE), with protease inhibitor cocktail (PIC), PIC:CWE 1:280 v/v, PIC:CWE 1:280 v/v, experiment 2 of 3, read-out: Intact Hst1, CWE + PIC 1:280 96h", "value": 41.5, "unit": "%"}, {"measurement": "Percentage intact, CWE 2h", "setting": "[2]; 0 h = 100%, experiment 1 of 3", "value": 83.2738, "unit": "%"}, {"measurement": "Percentage intact, CWE 2h", "setting": "[2]; 0 h = 100%, experiment 2 of 3", "value": 87.1828, "unit": "%"}, {"measurement": "Percentage intact, CWE 2h", "setting": "[2]; 0 h = 100%, experiment 3 of 3", "value": 86.6201, "unit": "%"}, {"measurement": "Percentage intact, CWE 4h", "setting": "[2]; 0 h = 100%, experiment 1 of 3", "value": 58.4193, "unit": "%"}, {"measurement": "Percentage intact, CWE 4h", "setting": "[2]; 0 h = 100%, experiment 2 of 3", "value": 76.5418, "unit": "%"}, {"measurement": "Percentage intact, CWE 4h", "setting": "[2]; 0 h = 100%, experiment 3 of 3", "value": 73.9107, "unit": "%"}, {"measurement": "Percentage intact, CWE 8h", "setting": "[2]; 8 h, 0 h = 100%, experiment 1 of 3", "value": 32.9227, "unit": "%"}, {"measurement": "Percentage intact, CWE 8h", "setting": "[2]; 8 h, 0 h = 100%, experiment 2 of 3", "value": 52.8031, "unit": "%"}, {"measurement": "Percentage intact, CWE 8h", "setting": "[2]; 8 h, 0 h = 100%, experiment 3 of 3", "value": 51.366, "unit": "%"}, {"measurement": "Percentage intact, CWE 16h", "setting": "[2]; 0 h = 100%, experiment 1 of 3", "value": 8.0136, "unit": "%"}, {"measurement": "Percentage intact, CWE 16h", "setting": "[2]; 0 h = 100%, experiment 2 of 3", "value": 20.767, "unit": "%"}, {"measurement": "Percentage intact, CWE 16h", "setting": "[2]; 0 h = 100%, experiment 3 of 3", "value": 27.1396, "unit": "%"}, {"measurement": "Percentage intact, CWE 24h", "setting": "[2]; 24 h, 0 h = 100%, experiment 1 of 3", "value": 1.592, "unit": "%"}, {"measurement": "Percentage intact, CWE 24h", "setting": "[2]; 24 h, 0 h = 100%, experiment 2 of 3", "value": 7.881, "unit": "%"}, {"measurement": "Percentage intact, CWE 24h", "setting": "[2]; 24 h, 0 h = 100%, experiment 3 of 3", "value": 13.5375, "unit": "%"}, {"measurement": "Percentage intact, CWE 48h", "setting": "[2]; 0 h = 100%, experiment 1 of 3", "value": 0.0001, "unit": "%"}, {"measurement": "Percentage intact, CWE 48h", "setting": "[2]; 0 h = 100%, experiment 2 of 3", "value": 0.0001, "unit": "%"}, {"measurement": "Percentage intact, CWE 48h", "setting": "[2]; 0 h = 100%, experiment 3 of 3", "value": 0.0001, "unit": "%"}, {"measurement": "Percentage intact, CWE 72h", "setting": "[2]; 0 h = 100%, experiment 1 of 3", "value": 0.0001, "unit": "%"}, {"measurement": "Percentage intact, CWE 72h", "setting": "[2]; 0 h = 100%, experiment 2 of 3", "value": 0.0001, "unit": "%"}, {"measurement": "Percentage intact, CWE 72h", "setting": "[2]; 0 h = 100%, experiment 3 of 3", "value": 0.0001, "unit": "%"}, {"measurement": "Percentage intact, CWE 96h", "setting": "[2]; 0 h = 100%, experiment 1 of 3", "value": 0.0001, "unit": "%"}, {"measurement": "Percentage intact, CWE 96h", "setting": "[2]; 0 h = 100%, experiment 2 of 3", "value": 0.0001, "unit": "%"}, {"measurement": "Percentage intact, CWE 96h", "setting": "[2]; 0 h = 100%, experiment 3 of 3", "value": 0.0001, "unit": "%"}, {"measurement": "remaining at 8 h, 0.5 mg/ml", "setting": "[2]; human, chronic wound extracts (CWE), 1 mg/ml in PBS mixed 1:1 with CWE (1 mg/ml protein, pools of 5 donors), 8 h, 0 h = 100%, mean of 3 independent experiments, read-out: Original amount of peptide remaining intact after 8 h in CWE", "value": 46, "unit": "%"}, {"measurement": "remaining at 24 h, 0.5 mg/ml", "setting": "[2]; human, chronic wound extracts (CWE), 1 mg/ml in PBS mixed 1:1 with CWE (1 mg/ml protein, pools of 5 donors), 24 h, 0 h = 100%, mean of 3 independent experiments, read-out: Original amount of peptide remaining intact after 24 h in CWE", "value": 8, "unit": "%"}, {"measurement": "metabolised at 8 h, 0.5 mg/ml", "setting": "[2]; human, chronic wound extracts (CWE), incubation with chronic wound extracts, 8 h, read-out: Breakdown (degradation) in CWE in 8 h", "value": "~50", "unit": "%"}]}
